Assay: Tissue distribution by quantitative whole-body autoradiography (QWBA)
Type: in vivo, male Sprague Dawley and Long-Evans rats
Settings: for AUCall Ratio (PO/IV) / Cmax Ratio (PO/IV): 15 mg/kg, Group 7 vs Group 4
Protocol: The study utilized 4 groups of male SD rats (albino), and 3 groups of male LE rats (pigmented); a total of 39 rats. All animals were obtained from Hilltop Lab Animals, Inc. (Scottdale, Pa.). […] Rats in Group 5 were administered a single 2-h IV infusion of [^14C]brincidofovir at a target dose of 2 mg/kg. […] Three dosing formulations (one for high dose IV, one for low dose IV, and one for PO dose) were prepared at QPS on the day of dosing. The IV formulation for Groups 1, 2, 3, and 4 contained a vehicle of 10 mM sodium phosphate buffer in 5% dextrose solution at pH 8.0(±0.1).
Each animal, at their respective termination time points, was euthanized for QWBA analysis immediately after blood collection. One rat per time point per Group was euthanized as listed below.
The blood samples were maintained on wet ice (approximately 4° C.) and then centrifuged to obtain plasma within 1 h of the blood collection time. Centrifuge settings were recorded in the study notebook. Duplicate aliquots of plasma (0.050 mL) were analyzed for radioactivity using direct counting by LSC, and residual plasma was stored at approximately −70° C. and was saved for possible future analysis under a separate study protocol. Residual red blood cells were discarded as radioactive waste.
The pinna, distal limbs, hair, and tail were removed from each frozen carcass and each frozen carcass was embedded in an aqueous suspension of approximately 2% (w/v) carboxymethylcellulose and frozen into a block. The blocks were stored at approximately −20° C. prior to sectioning. Each blocked carcass was mounted on the object stage of a cryomicrotome (Leica CM3600 Cryomacrocut, Nussloch, Germany and Vibratome 9800, St. Louis, Mo.) maintained at approximately −20° C. and internal standards (3), which were plasma fortified with [^14C]-glucose at one concentration (approximately 0.05 μCi/mL), were placed into the frozen blocks, prior to sectioning, and were used for section thickness quality control. A number of whole-body sections (approximately 40 μm thick) were taken in the sagittal plane at various levels of interest using a whole-body cryomicrotome set at −20° C. Sagittal sections (20-50 μm thick) of frozen carcasses were exposed to phosphor imaging plates. Regions of images in tissues were converted to concentrations using standards. All of the major tissues, organs, and biological fluids were represented.
Tissue concentration data was determined for the following tissues and/or contents: adipose (brown and white), adrenal gland, bile (in duct), blood (cardiac), bone, bone marrow, brain (cerebrum, cerebellum, medulla), cecum (and contents), large intestine (and contents), epididymis, esophagus, eye (uvea and lens), Harderian gland, heart, kidney (cortex and medulla), liver, lung, lymph node, pancreas, pituitary gland, prostate gland, salivary gland, seminal vesicles, skeletal muscle, skin (pigmented and non-pigmented), small intestine (and contents), stomach (gastric mucosa and contents), spleen, spinal cord, testis, thymus, thyroid, and urinary bladder (and contents).
The imaging plate and sections were placed in light-tight exposure cassettes, in a copper-lined lead safe, for a 4-day exposure at room temperature. […] Quantification was performed by image densitometry using MCD image analysis software (v. 7.0, Interfocus Imaging Ltd) and a standard curve constructed from the integrated response [i.e., Molecular Dynamics Counts per square millimeter (MDC/mm^2)] and the nominal concentrations of the ^14C-calibration standards. The concentrations of radioactivity were expressed as the μg equivalents of [^14C]brincidofovir per gram sample (μg equiv/g). A lower limit of quantification (LLOQ) was applied to the data (See section 6.7.4).
Tissue concentrations that fell below the LLOQ were identified as being below the quantification limit (BQL). Tissue areas that were not visualized on autoradiographic images were identified as no sample (NS) and reported as BQL.

CCCCCCCCCCCCCCCCOCCCOP(=O)(O)CO[C@H](CO)Cn1ccc(N)nc1=O [[^14C] brincidofovir]
AUCall Ratio (PO/IV) (Adipose (brown)): 0.25 | Cmax Ratio (PO/IV) (Adipose (brown)): 0.18 | AUCall (Adipose (brown), 2 h IV infusion 15 mg/kg, Group 4): 96.6220 μg equiv · h/g | Tissue Concentration (168 h) (Adipose (brown), 2 h IV infusion 15 mg/kg, Group 4, LLOQ 0.036): 0.132 μg equiv/g | Tissue Concentration (168 h) (Adipose (brown), PO 15 mg/kg, Group 7, LLOQ 0.034): 0.037 μg equiv/g | AUCall (Adipose (brown), PO 15 mg/kg, Group 7): 24.3703 μg equiv · h/g | AUCall Ratio (PO/IV) (Adipose (white)): 0.16 | Cmax Ratio (PO/IV) (Adipose (white)): 0.24 | AUCall (Adipose (white), 2 h IV infusion 15 mg/kg, Group 4): 7.1955 μg equiv · h/g | Tissue Concentration (168 h) (Adipose (white), 2 h IV infusion 15 mg/kg, Group 4, LLOQ 0.036): BQL | Tissue Concentration (168 h) (Adipose (white), PO 15 mg/kg, Group 7, LLOQ 0.034): BQL | AUCall (Adipose (white), PO 15 mg/kg, Group 7): 1.1215 μg equiv · h/g | AUCall Ratio (PO/IV) (Adrenal Gland): 0.19 | Cmax Ratio (PO/IV) (Adrenal Gland): 0.28 | AUCall (Adrenal Gland, 2 h IV infusion 15 mg/kg, Group 4): 384.2580 μg equiv · h/g | Tissue Concentration (168 h) (Adrenal Gland, 2 h IV infusion 15 mg/kg, Group 4, LLOQ 0.036): 0.49 μg equiv/g | Tissue Concentration (168 h) (Adrenal Gland, PO 15 mg/kg, Group 7, LLOQ 0.034): 0.058 μg equiv/g | AUCall (Adrenal Gland, PO 15 mg/kg, Group 7): 74.5860 μg equiv · h/g | AUCall Ratio (PO/IV) (Blood (cardiac)): 0.48 | Cmax Ratio (PO/IV) (Blood (cardiac)): 0.21 | AUCall (Blood (cardiac), 2 h IV infusion 15 mg/kg, Group 4): 45.3555 μg equiv · h/g | Tissue Concentration (168 h) (Blood (cardiac), 2 h IV infusion 15 mg/kg, Group 4, LLOQ 0.036): BQL | Tissue Concentration (168 h) (Blood (cardiac), PO 15 mg/kg, Group 7, LLOQ 0.034): BQL | AUCall (Blood (cardiac), PO 15 mg/kg, Group 7): 21.9165 μg equiv · h/g | AUCall Ratio (PO/IV) (Bone Marrow): 0.35 | Cmax Ratio (PO/IV) (Bone Marrow): 0.12 | AUCall (Bone Marrow, 2 h IV infusion 15 mg/kg, Group 4): 197.3860 μg equiv · h/g | Tissue Concentration (168 h) (Bone Marrow, 2 h IV infusion 15 mg/kg, Group 4, LLOQ 0.036): 0.232 μg equiv/g | Tissue Concentration (168 h) (Bone Marrow, PO 15 mg/kg, Group 7, LLOQ 0.034): 0.094 μg equiv/g | AUCall (Bone Marrow, PO 15 mg/kg, Group 7): 68.7413 μg equiv · h/g | AUCall Ratio (PO/IV) (Bone): 0.30 | Cmax Ratio (PO/IV) (Bone): 0.39 | AUCall (Bone, 2 h IV infusion 15 mg/kg, Group 4): 6.1805 μg equiv · h/g | Tissue Concentration (168 h) (Bone, 2 h IV infusion 15 mg/kg, Group 4, LLOQ 0.036): BQL | Tissue Concentration (168 h) (Bone, PO 15 mg/kg, Group 7, LLOQ 0.034): BQL | AUCall (Bone, PO 15 mg/kg, Group 7): 1.8470 μg equiv · h/g | AUCall Ratio (PO/IV) (Brain (cerebellum)): 0.07 | Cmax Ratio (PO/IV) (Brain (cerebellum)): 0.07 | AUCall (Brain (cerebellum), 2 h IV infusion 15 mg/kg, Group 4): 12.1870 μg equiv · h/g | Tissue Concentration (168 h) (Brain (cerebellum), 2 h IV infusion 15 mg/kg, Group 4, LLOQ 0.036): BQL | Tissue Concentration (168 h) (Brain (cerebellum), PO 15 mg/kg, Group 7, LLOQ 0.034): BQL | AUCall (Brain (cerebellum), PO 15 mg/kg, Group 7): 0.8610 μg equiv · h/g | AUCall Ratio (PO/IV) (Brain (cerebrum)): 0.08 | Cmax Ratio (PO/IV) (Brain (cerebrum)): 0.07 | AUCall (Brain (cerebrum), 2 h IV infusion 15 mg/kg, Group 4): 9.1765 μg equiv · h/g | Tissue Concentration (168 h) (Brain (cerebrum), 2 h IV infusion 15 mg/kg, Group 4, LLOQ 0.036): BQL | Tissue Concentration (168 h) (Brain (cerebrum), PO 15 mg/kg, Group 7, LLOQ 0.034): BQL | AUCall (Brain (cerebrum), PO 15 mg/kg, Group 7): 0.7650 μg equiv · h/g | AUCall Ratio (PO/IV) (Brain (medulla)): 0.06 | Cmax Ratio (PO/IV) (Brain (medulla)): 0.06 | AUCall (Brain (medulla), 2 h IV infusion 15 mg/kg, Group 4): 9.7470 μg equiv · h/g | Tissue Concentration (168 h) (Brain (medulla), 2 h IV infusion 15 mg/kg, Group 4, LLOQ 0.036): BQL | Tissue Concentration (168 h) (Brain (medulla), PO 15 mg/kg, Group 7, LLOQ 0.034): BQL | AUCall (Brain (medulla), PO 15 mg/kg, Group 7): 0.5770 μg equiv · h/g | AUCall Ratio (PO/IV) (Cecum): 0.48 | Cmax Ratio (PO/IV) (Cecum): 1.07

Source: patent publication US20170368082A1, “FORMULATIONS OF BRINCIDOFOVIR” (priority 2016, published 2017)
